Test results published in ChEMBL document CHEMBL1136391, “Synthesis and activity of a C-8 keto pleuromutilin derivative” (2003).
In brackets after ≈: the same amount, converted by molar mass.

Tests used:
Type in all cases: functional
Streptococcus pneumoniae = assay: Minimum inhibitory concentration against Streptococcus pneumoniae / Penicillin Resistant
Staphylococcus aureus = assay: Minimum inhibitory concentration against Staphylococcus aureus / Homo MR
Moraxella catarrhalis = assay: Minimum inhibitory concentration against Moraxella catarrhalis / Pen+
Haemophilus influenzae = assay: Minimum inhibitory concentration against Haemophilus influenzae / Pen+

SMILES	MIC (Streptococcus pneumoniae)	MIC (Staphylococcus aureus)	MIC (Moraxella catarrhalis)	MIC (Haemophilus influenzae)
C=C[C@]1(C)C[C@@H](OC(=O)Nc2ccc(OC)cc2)[C@]2(C)C(C)CC[C@]3(CCC(=O)[C@H]32)[C@@H](C)[C@@H]1O (stereo partly drawn)	0.003 µg/mL (≈ 0.00639 µM)	0.003 µg/mL (≈ 0.00639 µM)	0.125 µg/mL (≈ 0.266 µM)	4 µg/mL (≈ 8.52 µM)
C=C[C@]1(C)C[C@@H](OC(=O)Nc2ccc(OC)cc2)[C@]2(C)C(C)CC(=O)[C@]3(CCC(=O)[C@H]32)[C@@H](C)[C@@H]1O (stereo partly drawn)	32 µg/mL (≈ 66.2 µM)	32 µg/mL (≈ 66.2 µM)	64 µg/mL (≈ 132 µM)	64 µg/mL (≈ 132 µM)
